Measured values as given in US10808005B2, “Ligand for orphan nuclear receptor Nur77 and uses thereof” (IXMEDICINE (XIAMEN) BIOLOGICAL TECHNOLOGY COMPANY LIMITED, priority 2016, dated 2020).

Key:
[1] = tested on: IκBα and phosphorylated IKKα/β; assay: Immunoblot of IκBα and phosphorylated IKKα/β in TNFα-treated HepG2 cells; format: cell-based; conditions: TNFα 20 ng/mL 30 minutes
Excerpt: IκBα and phosphorylated IKKα/β in the cells were then detected by WB.
In addition, HepG2 cells were also applied in the experiment. […] IκBα in the cells was then detected by WB.

[2] = tested on: IκBα; assay: Immunoblot of IκBα in MEF cells; format: cell-based; conditions: MEF cells expressing Nur77
Excerpt: (§1) The above results were also confirmed by using MEF cells and Nur77−/−MEF cells (i.e., MEF cells not expressing Nur77). […] Subsequently, IκBα in the cells was detected by WB.

[3] = tested on: IκBα; assay: Immunoblot of IκBα in Nur77−/−MEF cells; format: cell-based
Excerpt: as §1

[4] = tested on: mTOR signaling pathway; assay: Immunoblot of p-mTOR, p-P70S6K, p-S6 in TNFα-treated starved MDA-MB-231 cells; format: cell-based
[5] = tested on: BT474, ZR-75-1, BT549, HCC1937, HS578T, MCF-7, and T47D; assay: Inhibition rate on seven breast cancer cells; format: cell-based; conditions: various breast cancer cells, FIG. 11C
[6] = tested on: breast cancer; assay: PYVT mice under LFD or HFD feeding, intragastric administration; format: in vivo, WT mice and PYVT mice
Excerpt: The above conclusions can be reflected in the size of tumor tissue and the change of body weight of mice.

[7] = tested on: tumors; assay: Tumor inhibition in wild type PYVT mice; format: in vivo; conditions: YXY101 5 mg/kg or XS0284 10 mg/kg intragastric, two weeks
[8] = tested on: tumors; assay: Tumor inhibition in Nur77-knocked-out PYVT mice; format: in vivo, Nur77-knocked-out type; conditions: Nur77-deficient; YXY101 5 mg/kg or XS0284 10 mg/kg intragastric, two weeks
[9] = Acute toxicity model mice, histopathology; format: in vivo
Excerpt: The tissue morphologies of the heart, liver, small intestine, white fat and kidney were observed by Histopathological method.

[10] = single intragastric injection 200 mg/kg
[11] = single intraperitoneal injection 20 mg/kg

SMILES: Cc1c(O)c(O)cc2c1C(S(=O)(=O)[O-])C=C1[C@@]2(C)CC[C@@]2(C)[C@@H]3C[C@](C)(C(=O)O)CC[C@]3(C)CC[C@]12C.[Na+] (stereo partly drawn) [XS0284]
- TNFα-induced degradation of IκBα [1]: capable of inhibiting TNFα-induced degradation of IκBα
- TNFα-induced degradation of IκBα [2]: able to inhibit TNFα-induced degradation of IκBα
- TNFα-induced degradation of IκBα [3]: lost the ability to inhibit IκBα degradation
- inhibitory effect on P-mTOR, P-p70S6K and P—S6 [4]: strong inhibitory effect
- inhibitory effects on proliferation compared with YXY101 [5]: close or even stronger than that of YXY101
- inhibition effect on breast cancer compared with YXY101 ([6]; high-fat feeding conditions): stronger than that of YXY101
- inhibitory effect on breast cancer compared with YXY101 ([6]; low-fat feeding conditions): close to that of YXY101
- development of breast cancer ([6]; low-fat or high-fat feeding conditions): can significantly inhibit the development of breast cancer
- tumor inhibition (tumor tissue size) [7]: effective in inhibiting tumors in wild-type mice
- tumor inhibition (tumor tissue size) [8]: neither of the two compounds could exert an inhibitory effect
- toxic effect compared with YXY101 ([9]; intragastric injection group): weaker toxic effect on the liver and small intestine than YXY101
- toxicity compared with YXY101 ([9]; intraperitoneal injection group): less toxicity to kidney and adipose than YXY101
- acute toxicity to animals compared with YXY101 ([9]; overall): less acute toxicity to animals than YXY101
- adipose tissue morphology [9, 10]: the adipose tissue cells had clear boundaries, and were neatly arranged, and the fiber breakage was reduced
- heart tissue morphology [9, 10]: relatively clear boundaries, the myocardial fibers were arranged relatively neatly and had obvious boundaries
- liver tissue morphology [9, 10]: the hepatocytes in the liver tissue had obvious boundaries and clear structure
- small intestine tissue morphology [9, 10]: the intestinal tissue had clear boundaries, the cells were plump, the intestinal villi were neatly arranged and had obvious boundaries
- adipose tissue morphology [9, 11]: the adipose tissue cells had clear boundaries and were arranged neatly, the fiber breakage was reduced
- heart tissue morphology [9, 11]: relatively clear boundaries, the myocardial fibers were relatively neatly arranged and had obvious boundaries
- kidney tissue morphology [9, 11]: the kidney tissue had clear glomerular boundaries, the cells were full, and there was a small amount of inflammatory cell infiltration
- liver tissue morphology [9, 11]: the hepatocytes in the liver tissue had obvious boundaries and clear structure
